From a melting point compilation (Tetko et al.; mined from patent text by program, amines drawn as free bases though some values may be those of a salt)

First: CC(C)OC1=NC(=O)N(C(C)C)S(=O)(=O)N1
Second: CC(C)N1C(=O)C2Cc3nc[nH]c3CN2C1=O (stereo not drawn)
The melting point of the first is higher: 164 to 167 °C for the first, 149 to 157 °C for the second.

Compared with `CCCOc1cc(Cn2[nH]c(N)cc2=O)ccc1Cl`, `C#CCOC(C(=O)NCCc1ccc(O)c(OC)c1)c1ccc(Cl)cc1` (stereo not drawn) is lower in melting point: 143 °C for the first, 93 to 95 °C for the second.

Compared with `CNc1c2c(nc3ccccc13)CCCC2=O`, `O=C1c2cc(O)ccc2N(Cc2ccccc2)C2=NCCN12` is higher in melting point: 116 to 117 °C for the first, 225 to 227 °C for the second.

First: CCOC(=O)c1c(Cl)nc2ccc(OC)cc2c1CCl
Second: CCOC(=O)CC(=O)C=Cc1ccc(OC)cc1
The melting point of the first is higher: 215 to 219 °C for the first, 69 °C for the second.

Compared with `Cc1cccc(C)c1CCOCCCCCCNCc1c(CO)ccc(O)c1CO`, `CC(C)(O)CCCCc1ccc(C=Cc2ccc(CO)c(CO)c2)cc1` is higher in melting point: 83 to 86 °C for the first, 102 to 104 °C for the second.

Compared with `CCOC(=O)NC(=N)NC#N`, `C=Cc1cnc(C)c(OC(=O)OCC)c1CSC(=O)OCC` is lower in melting point: 193 to 194 °C for the first, 142 to 145 °C for the second.

First: C[C@](O)(COc1ccc(C#N)cc1)C(=O)Nc1ccc(C#N)c(Cl)c1
Second: CC1(C)CCC(C)(C)c2cc(NC(=O)c3ccc(OCCN4CCOCC4)cc3)ccc21
The melting point of the first is lower: 103 to 105 °C for the first, 130 to 132 °C for the second.

First: FC(F)(F)Oc1ccc(Nc2nc(-c3ccccc3)cc(N3CCOCC3)n2)cc1
Second: O=C(Nc1ccc(-n2nc(C(F)(F)F)cc2C(F)(F)F)cc1)c1ccccc1
The melting point of the first is higher: 260 to 262 °C for the first, 177 to 178 °C for the second.

Compared with `COC(=O)CCNc1ccccc1CNC(=O)C1Cc2ccccc2N1S(=O)(=O)c1ccc(I)cc1` (stereo not drawn), `O=C(NO)C1(S(=O)(=O)c2ccc(Oc3ccc(Cl)cc3)cc2)CCN(Cc2ccccc2)CC1` is higher in melting point: 67 to 75 °C for the first, 90.4 °C for the second.

First: CC(C)OC(=O)C(C(N)=O)=C1SCS1
Second: CNC(=O)NCC(C)(C)N
The melting point of the first is lower: 128 to 129 °C for the first, 150 °C for the second.

Compared with `Cc1ccc(C(F)C(F)(F)S(=O)(=O)c2ccccc2)cc1` (stereo not drawn), `CS(=O)(=O)c1cccc(NC(=O)c2cnn3ccc(-c4ccc(C(F)(F)F)cc4)nc23)c1` is higher in melting point: 80 to 82 °C for the first, 254 to 255 °C for the second.

First: O=C(c1ccc(I)cc1)c1cc2c3c(c1)c(-c1cccc(Cl)c1)cc(=O)n3CC2
Second: O=C(O)c1cccc(-c2ccc3c(c2)N(c2cc(Cl)ccc2Cl)CC3)c1
The melting point of the first is lower: 202 °C for the first, 219 to 220 °C for the second.

First: O=C1NC(=O)C(Cc2ccc(OCc3nc4cccnc4n3Cc3ccc(Cl)cc3)cc2)S1 (stereo not drawn)
Second: Cc1nccc2c3ccc(OCc4ccccc4)cc3n(Cc3ccccc3)c12
The melting point of the first is higher: 211 to 213 °C for the first, 156 °C for the second.

First: CCCCCCCCCCCCCCCCCCOc1ccc(C(=O)OC)c(OCCCOc2ccc(OCc3ccccc3)cc2)c1
Second: CCCCCCCCCCCCCCCCCNC(=O)O[C@@H]1CCCO[C@H]1COc1cc(CCCCO)on1 (relative stereo)
The melting point of the first is lower: 68 to 70 °C for the first, 86 to 87 °C for the second.

First: COc1ccc2c(c1)C(=O)c1c-2n(CCCCl)c(=O)c2ccccc12
Second: Nc1ccc2c(c1)c1ccccc1n2CCC(=O)NCCO
The melting point of the first is lower: 195 to 198 °C for the first, 217 to 218 °C for the second.

First: O=C1N(Cc2ccc(C(F)(F)F)o2)c2c(F)cccc2C12COc1cc3c(cc12)OCO3 (stereo not drawn)
Second: Cn1cc(C(=O)O)c(=O)c2cc3cc(F)c(N4CCNC(c5ccccc5)C4)c(F)c3nc21 (racemic)
The melting point of the first is lower: 116 to 118 °C for the first, 298 °C for the second.

Compared with `COc1ccc2c(c1)SC(C#N)C(=O)CO2` (stereo not drawn), `COc1cccc(OC)c1C(=O)Nc1nnc(C2SCCCS2)s1` is higher in melting point: 132 to 133 °C for the first, 200 to 208 °C for the second.

First: O=C(Nc1ccccc1)c1ccc2c(c1)N(C1CC1)C=NS2(=O)=O
Second: COC(=O)C1CCC(=O)N1C(=O)Nc1ccccc1 (stereo not drawn)
The melting point of the first is higher: 278 to 281 °C for the first, 91 to 92 °C for the second.

Compared with `COc1ccc(C2Sc3c(ccc4ccccc34)N(CCN(C)C)C(=O)C2OC(=O)c2cc(OC)c(OC)c(OC)c2)cc1` (stereo not drawn), `Cc1ccc(C(=O)NCCN(C)C)cc1-n1c(C)cc(OCc2ccccc2CNC(=O)Nc2cc(C(C)(C)C)nn2-c2ccc(O)c(Cl)c2)c(Cl)c1=O` is lower in melting point: 189 to 190 °C for the first, 181 to 182 °C for the second.

First: Cc1cc2c(cc1F)N(C(N)=O)C(=O)C2
Second: Cc1ccc(C)c2c(=O)oc(=O)[nH]c12
The melting point of the first is lower: 200 to 203 °C for the first, 295 to 298 °C for the second.

First: CCC1(CC)OC(=O)C(Cn2cncn2)(c2ccc(Cl)cc2)O1 (stereo not drawn)
Second: O=C(O)CCc1oc(Cl)nc1-c1ccc(Cl)cc1
The melting point of the first is lower: 105 to 108 °C for the first, 169 to 170 °C for the second.

First: Cc1ncc(CS)c2c1OC(c1ccccc1)OC2 (stereo not drawn)
Second: CSc1nc2nc(C)cc(-c3ccccc3)n2n1
The melting point of the first is lower: 110 to 112 °C for the first, 121 to 123 °C for the second.

First: CCc1ccc(C)c(S(=O)(=O)NC(=O)n2nc(C)n(C)c2=O)c1
Second: NC(=O)NCCn1cc(Cn2ccnc2)c2ccccc21
The melting point of the first is lower: 145 °C for the first, 153 to 154 °C for the second.

First: CCCN(CCSc1nc(-c2ccccc2)c(-c2ccccc2)[nH]1)C(=O)Nc1ccc(F)cc1F
Second: COC(=O)c1c(-c2ccccc2)nc2c(c1N)c1c(n2Cc2ccc(OC)cc2)CCCC1
The melting point of the first is lower: 189 to 190 °C for the first, 192 to 194 °C for the second.

First: CC1(C)CC(=O)c2c(Nc3ccccn3)cn(-c3ccccn3)c2C1
Second: CN(C)c1ccc2c(c1)nc(/C=C/c1ccccc1)n2-c1ccccn1
The melting point of the first is higher: 180 to 183 °C for the first, 170 to 171 °C for the second.

First: O=C(O)CCC(Cc1ccc(Cl)cc1)(C(=O)C=Cc1ccc(Cl)cc1)c1ccccc1 (stereo not drawn)
Second: O=C(Nc1ccc(C(=O)Nc2ccc(Cl)cc2)c(O)c1)c1ccc(-c2nc3cc(Cl)c(Cl)cc3[nH]2)cc1
The melting point of the first is lower: 176 to 178 °C for the first, > 220 °C for the second.

First: COc1ccc(-c2ccncc2)c(C)n1
Second: Cc1cc(OCc2ccccc2)ccc1C(=O)O
The melting point of the first is lower: 85 to 90 °C for the first, 126 to 129 °C for the second.

First: CC1CCCC(=Cc2ccc(Cl)cc2)C1=O (stereo not drawn)
Second: OCC1CN(Cc2ccccc2)CCc2c1[nH]c1ccccc21 (stereo not drawn)
The melting point of the first is lower: 59 °C for the first, 95 °C for the second.

First: CCCCCCCCCCCCCCCCSCC(CO)n1nnnc1C (stereo not drawn)
Second: c1ccc2c(c1)c1ccccc1n2CCCCCCn1c2ccccc2c2ccccc21
The melting point of the first is lower: 77 to 78 °C for the first, 124 to 126 °C for the second.

First: CC(=O)NC(=O)C(=O)c1ccccc1
Second: CN(CC(=O)O)C(=S)c1cccc2c(Br)cccc12
The melting point of the first is lower: 124 to 125 °C for the first, 181 °C for the second.

First: COc1ccccc1C1(O)C(O)CC(C)(C)C2CN(Cc3ccccc3)CC21 (stereo not drawn)
Second: COc1ccc(CN2CC(NC(=O)c3ccc(OCC=C(C)CCC=C(C)C)cc3)CN2Cc2ccc(OC)cc2)cc1
The melting point of the first is higher: 190 °C for the first, 123 to 124 °C for the second.

Compared with `COCC(=O)Nc1cc2c(cc1Br)CCC2`, `CC(C)(C)c1cc(Br)c(O)c(C#N)c1` is lower in melting point: 84 to 86 °C for the first, 69 to 71 °C for the second.

First: CCOC(=O)COc1cc(C(=O)Oc2ccc([N+](=O)[O-])cc2)c(O)c2ccccc12
Second: COc1ccc(NC(=O)c2ccc(F)c(F)c2)cc1NS(=O)(=O)c1cccc(N)c1
The melting point of the first is lower: 165 to 167 °C for the first, 205 to 209 °C for the second.

First: O=[N+]([O-])c1cnc(Sc2cnccn2)s1
Second: O=C(NC(NC(=S)Nc1cccnc1)C(Cl)(Cl)Cl)c1ccc(I)cc1 (stereo not drawn)
The melting point of the first is lower: 129 to 130 °C for the first, 197 to 199 °C for the second.

First: COC(=O)c1nc(Cl)c(F)c(N)c1Cl
Second: CC(C)N(c1nc(N)nc(-c2cc(Cl)ccc2Cl)n1)C(C)C
The melting point of the first is lower: 128 to 131 °C for the first, 158 to 159 °C for the second.

First: COC(=O)C=CC1C(C(=O)OC(C)(C)C)C1(C)C (stereo not drawn)
Second: CC(C)(C)OC(=O)N1CCC(C(=O)c2nc3ccccc3s2)CC1
The melting point of the first is lower: 67 °C for the first, 94 to 95 °C for the second.

For `C[Si](C)(C)c1cc(C(=O)O)cc([Si](C)(C)C)c1`, the melting point was > 300 °C.
